# In PubChem BioAssay (NCI):
# “And” between values parts separate entries of the source, which are not always exact repeats. Identical values can stand only once.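 All cell lines were grown in 96-well plates and treated with compound for 48 hours. The concentration for 50% growth inhibition is given as GI50. TGI denotes the concentration required for complete inhibition of growth.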
# What was measured:
# Assay in all cases: inhibition of tumour cell growth, NCI panel, 48 h
# SN12C renal = system: SN12C renal
# SR leukemia = system: SR leukemia
# NCI-H460 lung = system: NCI-H460 lung
# T-47D breast = system: T-47D breast
# 786-0 renal = system: 786-0 renal
# OVCAR-4 ovarian = system: OVCAR-4 ovarian
# HOP-62 NSCLC = system: HOP-62 NSCLC
# OVCAR-8 ovarian = system: OVCAR-8 ovarian
# LOX IMVI melanoma = system: LOX IMVI melanoma
# SK-OV-3 ovarian = system: SK-OV-3 ovarian
Compound,GI50 (SN12C renal),GI50 (SR leukemia),TGI (SR leukemia),GI50 (NCI-H460 lung),GI50 (T-47D breast),TGI (T-47D breast),GI50 (786-0 renal),GI50 (OVCAR-4 ovarian),TGI (OVCAR-4 ovarian),GI50 (HOP-62 NSCLC),GI50 (OVCAR-8 ovarian),TGI (OVCAR-8 ovarian),GI50 (LOX IMVI melanoma),TGI (LOX IMVI melanoma),GI50 (SK-OV-3 ovarian),TGI (SK-OV-3 ovarian),TGI (SN12C renal),TGI (NCI-H460 lung),TGI (786-0 renal),TGI (HOP-62 NSCLC)
C/C=C1\NC(=O)[C@H]2CSSCCC=C[C@H](CC(=O)N[C@H](C(C)C)C(=O)N2)OC(=O)[C@H](C(C)C)NC1=O,< 0.01 µM,< 0.01 µM and 0.000119 µM,0.221 µM and 0.0286 µM and 0.047 µM,< 0.01 µM,< 0.01 µM,< 0.01 µM and 0.0103 µM,< 0.01 µM and 0.000554 µM,0.0109 µM and < 0.0102 µM,0.201 µM and 0.0892 µM and 0.619 µM,< 0.01 µM,< 0.01 µM,0.0668 µM and 0.072 µM and 0.154 µM,< 0.01 µM and 0.000122 µM,< 0.01 µM and 0.00104 µM,< 0.01 µM and 0.000175 µM,< 0.01 µM and 0.00789 µM,–,–,–,–
C=CC(=O)Nc1cc2c(Nc3ccc(F)c(Cl)c3)ncnc2cc1OCCCN1CCOCC1,0.805 µM and 1.59 µM,1.72 µM and 2.3 µM,> 21 µM and 6.51 µM,3.65 µM and 5.27 µM,0.0677 µM and 0.182 µM,18.7 µM and > 10 µM,2.04 µM and 3.04 µM,2.61 µM and 2.71 µM,9.73 µM and > 10 µM,3.27 µM and > 5.63 µM,1.77 µM and 2.54 µM,6.67 µM and > 10 µM,1.29 µM and 1.69 µM,2.7 µM and 3.32 µM,0.0791 µM and 0.127 µM,4.1 µM and > 9.32 µM,6.8 µM and > 10 µM,15.4 µM and > 10 µM,10.9 µM and > 10 µM,13.9 µM and > 10 µM
Cc1cc2c(cc1Cl)SC1=NN(C)C(N(C)C)N1S2(=O)=O (stereo unspecified),> 100 µM,> 100 µM,> 100 µM,> 100 µM,> 100 µM,> 100 µM,> 100 µM,> 100 µM,> 100 µM,> 100 µM,> 100 µM,> 100 µM,> 100 µM,> 100 µM,> 100 µM,> 100 µM,> 100 µM,> 100 µM,> 100 µM,> 100 µM
COc1cc(C(=O)Nc2cc3c(cc2Oc2cc(C)cc(C)c2)C(=O)N(C)[C@@H](CC(=O)N(C)O)C(=O)N3)c(Br)c(OC)c1OC,< 0.00333 µM,< 0.00333 µM,0.00904 µM,< 0.00333 µM,< 0.00333 µM,< 0.00333 µM,0.00824 µM,< 0.00333 µM,< 0.00333 µM,< 0.00333 µM,< 0.00333 µM,0.0181 µM,< 0.00333 µM,< 0.00333 µM,< 0.00333 µM,0.00955 µM,< 0.00333 µM,0.00425 µM,0.0429 µM,0.00372 µM
COc1ccc(C2=NN(C=O)C(c3cccc(Nc4ccnc5cc(Cl)ccc45)c3)C2)cc1 (stereo unspecified),4.45 µM,0.583 µM,5.23 µM,2.73 µM,1.39 µM,21 µM,3.43 µM,1.54 µM,31.8 µM,2.11 µM,3.29 µM,27.6 µM,2.52 µM,12.5 µM,3.33 µM,23.3 µM,> 100 µM,15.7 µM,17.6 µM,16.6 µM
COc1cc(-c2cn(-c3ccc(Cl)c(Cl)c3)c(=O)n2C(C)=O)cc(OC)c1OC,12.3 µM,14.8 µM,34.5 µM,10.5 µM,18.4 µM,48.1 µM,2.79 µM,5.21 µM,> 100 µM,7.48 µM,8.49 µM,31.9 µM,13.7 µM,28 µM,15.4 µM,33.3 µM,31.1 µM,25.1 µM,11.5 µM,21.1 µM
